Legend:
[1] = test system: CT26.WT-reactive T cells in mouse spleen cells; assay: ELISPOT analysis of IFNγ-producing spleen cells; format: in vivo
Description: The number of CT26.WT-reactive T cells in mouse spleen cells was determined by Murine IFNγ Single-Color Enzymatic ELISPOT Assay (manufactured by […] TECHNOLOGY LIMITED), more specifically, counting of the number of IFNγ spots produced from individual spleen cells. From each of the mice used in Example 3, the spleen was harvested and the number of spleen cells was adjusted to be 1.0×10^6 cells/mL by use of CTL test medium. CT26.WT cells were treated with 10 μg/mL mitomycin C for 2 hours and washed. Thereafter, the cells were collected, adjusted to be 1.0×10^6 cells/mL by CTL test medium, and used as an antigen. The spleen cells and the antigen were added each in an amount of 100 μL/well in a PVDF-membrane plate pre-coated with an anti-IFNγ antibody and co-cultured at 37° C. for 24 hours. Thereafter, the color was developed using the attached antibody and coloring reagent and the number of IFNγ-producing spleen cells was determined. Comparison between the NCD cell inoculation group and compound (A) or MTX treatment group was made in accordance with the Wilcoxon rank sum test. P value was expressed to four decimal places and the results satisfying P<0.05 (two-sided test) were determined as being significant.

[2] = Clin. Invest. 2020: 130(1): 374-388; cited from earlier work
[3] = test system: cells treated with compound (A); conditions: Clin. Invest. 2020: 130(1): 374-388; cited from earlier work
Topoisomerase I = biological target: T1, Topoisomerase I (Homo sapiens, UniProt P11387); conditions: Ogitani Y. et al., Clinical Cancer Research 2016; cited from earlier work
T1 sequence (P11387 1-765): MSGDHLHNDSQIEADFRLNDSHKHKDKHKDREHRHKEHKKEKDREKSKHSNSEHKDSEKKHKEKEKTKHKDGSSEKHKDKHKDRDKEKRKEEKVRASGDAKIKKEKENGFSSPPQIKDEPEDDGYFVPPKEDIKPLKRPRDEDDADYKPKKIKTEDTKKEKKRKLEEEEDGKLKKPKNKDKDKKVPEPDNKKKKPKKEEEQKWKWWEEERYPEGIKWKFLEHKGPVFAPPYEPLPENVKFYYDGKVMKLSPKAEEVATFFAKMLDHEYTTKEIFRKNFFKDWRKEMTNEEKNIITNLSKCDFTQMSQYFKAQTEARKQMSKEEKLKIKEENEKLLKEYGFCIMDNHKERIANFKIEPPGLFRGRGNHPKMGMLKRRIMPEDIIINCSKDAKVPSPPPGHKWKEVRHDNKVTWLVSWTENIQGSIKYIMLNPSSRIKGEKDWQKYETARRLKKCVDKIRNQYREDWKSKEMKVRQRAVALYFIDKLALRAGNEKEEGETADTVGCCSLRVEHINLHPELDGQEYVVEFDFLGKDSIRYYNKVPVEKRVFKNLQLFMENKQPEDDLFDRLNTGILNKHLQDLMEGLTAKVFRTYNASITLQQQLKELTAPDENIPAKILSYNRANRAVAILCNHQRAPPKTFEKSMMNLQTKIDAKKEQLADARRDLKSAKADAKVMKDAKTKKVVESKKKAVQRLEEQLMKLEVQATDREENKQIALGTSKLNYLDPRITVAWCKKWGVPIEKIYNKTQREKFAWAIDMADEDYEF

[4] = drug-treated CT26.WT cells inoculated, anti-SIRPα antibody (5C12) administration

## CC[C@@]1(O)C(=O)OCc2c1cc1n(c2=O)Cc2c-1nc1cc(F)c(C)c3c1c2[C@@H](NC(=O)CO)CC3 [compound (A)]
[1]; ELISPOT, spleen cells
  antigen specific T cell induction compared to the MTX treatment group: tendency to further enhance
[1]; drug-treated CT26.WT cells inoculated, PBS administration
  number of IFNγ-producing spleen cells compared to NCD_PBS: tendency to increase
[1]; [4]
  number of IFNγ-producing spleen cells compared to NCD_PBS: significantly increased
  number of IFNγ-producing spleen cells compared to compound (A) PBS group: significantly increased
[2]
  antitumor effect by vaccination of the treated cells: limited antitumor effect
[3]
  HMGB1 release from treated cells: released
Topoisomerase I
  topoisomerase I inhibitory effect: TpoI inhibitor

Source: patent publication US20230414778A1, “COMBINATION OF ANTIBODY-DRUG CONJUGATE WITH ANTI-SIRPalpha ANTIBODY” (DAIICHI SANKYO COMPANY, LIMITED, priority 2020, published 2023)
